Source: publication PMC4126480, “Evaluation of drug interaction potential of Labisia pumila (Kacip Fatimah) and its constituents” (Frontiers in Pharmacology, 2014)

Columns and labels:
P-gp [1] = molecular target: T1, P-gp (Homo sapiens, UniProt P08183); assay: P-gp inhibition by 3H-digoxin basolateral to apical transport in hMDR1-MDCK-II cells
Experimental: The cells were seeded at a density of 120,000 cells/well in 12-well Transwell plates and cultured for 3 days. […] Cells were washed with warm HBSS buffer supplemented with 10 mM HEPES (pH 7.4) and pre-incubated with 0.5 mL of buffer containing test samples (six concentrations) on the apical side and 1.5 mL of buffer on the basolateral side for 30 min (37 °C, 5% CO2, and 95% relative humidity). […] Aliquots of 25 μL were taken out from the apical side, mixed with 100 μL of scintillant (Microscint TM-40, PerkinElmer) and radioactive counts were measured on a TopCount microplate scintillation counter (PerkinElmer, Waltham, MA, USA) in CPM mode.
The inhibition of the basolateral to apical (B-A) transport of digoxin by test samples was calculated compared to the vehicle control.

P-gp [2] = molecular target: T1, P-gp; assay: P-gp inhibition by calcein-AM uptake in hMDR1-MDCK-II cells
Experimental: Cells were seeded in 96-well plates at 70,000 cells/well in 200 μL of culture medium. The medium was changed at 24 h after seeding and the assay was performed 48 h later.

PXR = molecular target: T2, PXR (Homo sapiens, UniProt O75469); assay: Inhibition of rifampicin-induced PXR activity, reporter gene assay in HepG2 cells; type: cell-based; details: extract 3–30 μg/mL, saponins 3–30 μM
T2 construct: expressed in transfected cells; host or cells: HepG2 cells, transient electroporation with pSG5-PXR and the CYP3A4-PXRE-LUC reporter
T2 sequence (O75469 1-434): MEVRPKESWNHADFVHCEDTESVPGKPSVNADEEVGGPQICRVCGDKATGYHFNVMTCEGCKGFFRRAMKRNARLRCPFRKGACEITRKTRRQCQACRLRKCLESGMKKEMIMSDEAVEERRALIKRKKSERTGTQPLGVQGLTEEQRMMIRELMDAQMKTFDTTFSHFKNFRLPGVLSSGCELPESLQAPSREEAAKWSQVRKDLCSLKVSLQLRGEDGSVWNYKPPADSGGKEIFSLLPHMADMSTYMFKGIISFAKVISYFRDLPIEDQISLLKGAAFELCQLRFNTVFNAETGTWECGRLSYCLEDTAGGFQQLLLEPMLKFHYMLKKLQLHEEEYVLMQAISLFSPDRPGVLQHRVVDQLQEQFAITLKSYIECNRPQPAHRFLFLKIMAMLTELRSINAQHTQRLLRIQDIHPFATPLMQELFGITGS
From the text: The pSG5-hPXR expression vector was provided generously by Dr. Steven Kliewer (University of Texas Southwestern Medical Center, Dallas, TX, USA; [Lehmann et al., 1998]) and the reporter plasmid CYP3A4-PXR response element (PXRE)-LUC (containing the proximal 0/–362 and distal 7208/7797 PXRE regions fused upstream of luciferase; [Goodwin et al., 1999]) was a kind gift from Dr. Christopher Liddle (University of Sydney, Westmead, NSW, Australia). The modulation of PXR activity by test samples was determined in HepG2 cells transiently transfected with pSG5-PXR (25 μg) and PCR5 plasmid DNA (25 μg) by electroporation at 180 V, 1 pulse for 70 msec. The cells were plated in 96-well plates at a density of 50,000 cells per well. […] After additional 24 hour incubation, the media was aspirated and 40 μL of luciferase reagent (Promega Corporation, Madison, WI, USA) was added to each well and luminescence was measured on Spectramax M5 plate reader (Molecular Devices, Sunnyvale, CA, USA). The fold induction in luciferase activity in the treated cells was calculated in comparison to vehicle treated cells. The cytotoxicity of test samples toward HepG2 cells was also determined by measuring the cell viability using the CellTiter 96 AQueous One Solution Cell Proliferation Assay (MTS) as described earlier ([Manda et al., 2013]).

[3] = Estimation of concentration per dose, GIT and plasma concentrations (560 mg KF extract dose); design: species or system human; details: for Estimated concentration per dose: 560 mg KF extract, single dose, from % yield; for Estimated GIT concentration / Estimated Plasma concentration: 560 mg dose; for Estimated GIT concentration: human GIT volume 250 mL; for Estimated Plasma concentration: Table 2, plasma volume 3 L, 100% bioavailable assumed
Experimental: All assumptions to predict the HDI potential of KF methanolic extract and its constituents were according to previously published report ([Awortwe et al., 2014]). The % yield was calculated from the amounts extracted from the KF roots ([Ali and Khan, 2011]). The human GIT volume is 250 mL and plasma volume is about 3 L. The commonly used maximum dose of KF extract capsules is 560 mg per day ([Abdul Kadir et al., 2012]) and accordingly we estimated the concentration per dose, GIT, and plasma concentrations of extract and its constituents. We then compared the in vitro IC50 values obtained from recombinant CYPs with estimated GIT and plasma concentrations. If the IC50 values were lower than the GIT or plasma concentration, then the test compound or extract is likely to cause HDI in vivo.

[4] = system: hMDR1-MDCK-II cell monolayers; assay: Monolayer integrity: permeability of Lucifer yellow; type: in vitro ADME, canine; details: paracellular marker
Experimental: The cells were seeded at a density of 120,000 cells/well in 12-well Transwell plates and cultured for 3 days. TEER values were in the range of 500–800 Ω cm^2. Cells were washed with warm HBSS buffer supplemented with 10 mM HEPES (pH 7.4) and pre-incubated with 0.5 mL of buffer containing test samples (six concentrations) on the apical side and 1.5 mL of buffer on the basolateral side for 30 min (37 °C, 5% CO2, and 95% relative humidity).

T1 sequence (P08183 whole entry): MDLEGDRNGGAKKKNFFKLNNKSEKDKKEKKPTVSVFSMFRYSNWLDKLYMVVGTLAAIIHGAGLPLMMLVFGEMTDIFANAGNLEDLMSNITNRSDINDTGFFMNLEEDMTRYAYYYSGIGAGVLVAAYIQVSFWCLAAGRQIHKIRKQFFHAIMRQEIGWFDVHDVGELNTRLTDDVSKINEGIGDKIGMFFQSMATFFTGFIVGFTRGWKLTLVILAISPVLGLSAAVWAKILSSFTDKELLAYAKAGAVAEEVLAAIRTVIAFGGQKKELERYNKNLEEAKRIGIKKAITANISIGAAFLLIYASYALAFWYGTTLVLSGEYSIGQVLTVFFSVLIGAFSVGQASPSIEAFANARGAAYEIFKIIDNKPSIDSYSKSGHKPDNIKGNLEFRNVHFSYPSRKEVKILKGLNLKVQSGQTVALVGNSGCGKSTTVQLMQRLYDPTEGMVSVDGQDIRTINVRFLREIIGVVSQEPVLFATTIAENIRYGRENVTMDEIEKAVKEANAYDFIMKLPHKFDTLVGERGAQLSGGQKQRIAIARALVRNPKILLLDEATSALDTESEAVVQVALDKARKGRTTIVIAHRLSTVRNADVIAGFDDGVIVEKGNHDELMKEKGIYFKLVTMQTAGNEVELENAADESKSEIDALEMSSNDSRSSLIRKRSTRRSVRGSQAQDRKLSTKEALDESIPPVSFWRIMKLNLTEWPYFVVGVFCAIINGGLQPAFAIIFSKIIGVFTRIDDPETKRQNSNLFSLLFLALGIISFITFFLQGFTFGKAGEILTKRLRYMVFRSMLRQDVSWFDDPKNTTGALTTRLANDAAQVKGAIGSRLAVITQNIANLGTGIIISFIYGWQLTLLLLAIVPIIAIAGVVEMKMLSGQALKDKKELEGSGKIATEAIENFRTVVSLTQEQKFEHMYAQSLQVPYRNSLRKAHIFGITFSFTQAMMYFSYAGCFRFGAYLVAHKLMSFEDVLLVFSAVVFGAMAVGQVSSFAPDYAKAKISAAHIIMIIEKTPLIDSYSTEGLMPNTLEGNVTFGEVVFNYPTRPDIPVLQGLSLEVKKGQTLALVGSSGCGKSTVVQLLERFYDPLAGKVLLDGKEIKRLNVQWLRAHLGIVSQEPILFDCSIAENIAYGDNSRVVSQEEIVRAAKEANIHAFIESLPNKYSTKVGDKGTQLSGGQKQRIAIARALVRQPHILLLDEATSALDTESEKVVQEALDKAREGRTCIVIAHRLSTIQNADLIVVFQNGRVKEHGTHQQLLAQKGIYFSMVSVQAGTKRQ

Question: Which IC50 (P-gp [1]) does the source give for C[C@@H]1O[C@@H](O[C@H]2[C@H](O[C@H]3CO[C@@H](O[C@H]4CC[C@]5(C)[C@H]6CC[C@]78OC[C@@]9(CC[C@](C)(C=O)C[C@H]97)C(=O)C[C@@]8(C)[C@]6(C)CC[C@H]5C4(C)C)[C@H](O)[C@H]3O)O[C@H](CO)[C@@H](O)[C@@H]2O)[C@H](O)[C@H](O)[C@H]1O [Ardisimamilloside H] here?
Answer: Its IC50 is 4.2 ± 1.1 µM.

Question: What about the EC50 (P-gp [2]) of the same compound?
Answer: The EC50 was 42 ± 3.5 µM.

Question: And the “Effect on rifampicin-induced PXR activity” value (PXR)?
Answer: Its value is “dose dependently decreased”.

Question: And the “Estimated concentration per dose” value [3]?
Answer: Its value is 0.011 mg/mL.

Question: What about the “Estimated GIT concentration” value [3] of the same compound?
Answer: The value was 0.047 µg/mL.

Question: And the “Estimated Plasma concentration” value [3]?
Answer: Its value is 0.003 µg/mL.

Question: For CC1(C)[C@@H](O[C@@H]2OC[C@H](O[C@@H]3O[C@H](CO)[C@@H](O)[C@H](O)[C@H]3O[C@@H]3OC[C@@H](O)[C@H](O)[C@H]3O)[C@H](O)[C@H]2O)CC[C@]2(C)[C@H]3CC[C@]45OC[C@@]6(CC[C@](C)(C=O)C[C@H]64)[C@H](O)C[C@@]5(C)[C@]3(C)CC[C@@H]12 [Primulanin], which IC50 (P-gp [1]) is on record?
Answer: The IC50 was 6.4 ± 2.3 µM.

Question: What about the EC50 (P-gp [2]) of the same compound?
Answer: The EC50 was 34 ± 2.3 µM.

Question: And the “Effect on rifampicin-induced PXR activity” value (PXR)?
Answer: Its value is “dose dependently decreased”.

Question: What about the “Estimated concentration per dose” value [3] of the same compound?
Answer: Its value is 0.07 mg/mL.

Question: What about the “Estimated GIT concentration” value [3] of the same compound?
Answer: The value was 0.31 µg/mL.

Question: What about the “Estimated Plasma concentration” value [3] of the same compound?
Answer: Its value is 0.026 µg/mL.

Question: With Lucifer yellow [LY] as the compound, how does the Papp value [4] read?
Answer: Its Papp value is 1.1 ± 0.8 × 10^-6 cm/s.
